# Entries after “also recorded” stand apart in the source; their conditions may differ.
# Columns and labels:
# Type in all cases: cell-based, human
# [1] = system: CES1 expression in EFEMP1^WT iRPE cells; assay: Western blot of CES1 expression in normal (EFEMP1^WT) iRPE cells after treatment with agonists and antagonists; details: EFEMP1^WT iRPE cells from healthy donor, 72 h treatment, vs untreated control; LY294002 10 μM, GW4064 5 μM, GW3965 3 μM
# Description: (§1) Immunoblot To verify the differentiation of iRPE, CRALBP (Ab15051, Abcam) and RPE65 (401.8B11.3D9, Novas Biologicals) antibodies were used to detect mature RPE markers including CRALBP and RPE65 in iRPE cell lysates via western blot. To determine EFEMP1 expression in iRPE, both cell lysates and culture supernatant were assayed using anti-EFEMP1 antibody (MA5-25740, Thermo Fisher Scientific). To detect CES1 expression in iRPE, anti-CES1 antibody (AF4920, R&D) was used. Anti-alpha tubulin (T5168, Sigma Aldrich), anti-beta actin (A5316, Sigma), or anti-GAPDH (5174, Cell Signaling) antibodies were used to detect house-keeping proteins. The cell lysates were collected using RIPA buffer (Thermo Fisher Scientific).
# To understand the upstream regulators of CES1 expression, the iRPE cells from healthy donor were treated with Gefitnib ([…], Sigma Aldrich), ML385 ([…], Sigma Aldrich), LY294002 (10 μM, Sigma Aldrich), GW4064 (5 μM, Sigma Aldrich), or GW3965 (3 μM, Sigma Aldrich) for 72 h. Anti-CES1 (AF4920, R&D) and anti-alpha tubulin (T5168, Sigma Aldrich) antibodies were used to detect CES1 and tubulin expression, respectively. The signal was detected using Immobilon Western Chemiluminescent HRP Substrate (Millipore). The blot was quantified using ImageJ for signal intensity.
# [2] = system: CES1 expression in EFEMP1^R345W iRPE cells; assay: Western blot of CES1 expression in EFEMP1^R345W iRPE cells treated with EGF; details: 100 nM EGF, 72 h incubation, vs untreated cells
# Description: as §1
# iRPE cells [3] = assay: Nile red staining and quantification of intracellular lipid droplets in iRPE cells; parameters: amount of lipid droplets: dose or concentration left out as unconfirmed; details: EFEMP1^R345W iRPE, 2 weeks, vs untreated
# Description: Nile red staining To stain the intracellular neutral lipid, the iRPE cell cultures were treated with […] Nile red (Sigma Aldrich) for 30 min at 37° C. The cells were washed with PBS three times before microscopy observation.
# Since mature iRPE culture is usually 100% confluent, the Nile red-positively stained lipid droplets were quantified using ImageJ in a fixed area of 90,000 square micrometers for the number and size of Nile red-positive signals. Fluorescent particles smaller than 0.0001 square micrometers was excluded as noise.
# (§2) Lentiviral transduction For the knockdown of CES1 (MIM: 114835) in iRPE cells, the iRPE cells from healthy donor were cultured in 6-well plate. The lentiviral particles carrying CES1 shRNA (Locus ID 1066, Origene) were transduced into the iRPE cells at a MOI of 10 overnight. To establish fair comparison, the control iRPE cells were transduced with viral particles expressing scramble shRNA. The medium was refreshed the following day, and the cell were incubated for 7 days before analysis. To achieve overexpression of CES1 in iRPE cells, lentiviral particles (Origene) expressing CMV promoter-driven CES1 (GenBank: NM_001025194) were transduced following the same procedure.
# iRPE cells [4] = assay: Cholesterol efflux assay in iRPE cells; parameters: dose or concentration left out as unconfirmed; details: EFEMP1^R345W iRPE
# Description: Cholesterol efflux assay Cholesterol Efflux Assay Kit (Abcam) was used to determine the cholesterol efflux rate in iRPE according to the manufacturer's protocol. In brief, fluorescence-labeled cholesterol was added to iRPE culture and incubated overnight. On the next day, the cells were washed twice with PBS, and the efflux of cholesterol was induced by 2% human serum. At designated time points, the culture supernatant and cell lysate were collected and measured by fluorescence at Ex/Em: 482/515 nm. The percentage of cholesterol efflux was calculated by fluorescence intensity of media fluorescence/(fluorescence intensity of cell lysate+media)×100.
# as §2
compound,measurement,setting,value
O=C(O)Cc1cccc(OCCCN(Cc2cccc(C(F)(F)F)c2Cl)CC(c2ccccc2)c2ccccc2)c1 [GW3965],CES1 expression level (western blot),[1],no change in CES1 expression
Cc1ccccc1C(=O)N1CCc2cc(-c3nc(NC(=O)Cc4ccc5c(c4)OCO5)sc3C)ccc21 [ML385],CES1 expression level (western blot),[1],only LY294002 reduced CES1 expression
CC(C)c1onc(-c2c(Cl)cccc2Cl)c1COc1ccc(/C=C/c2cccc(C(=O)O)c2)c(Cl)c1 [GW4064],CES1 expression level (western blot),[1],no change in CES1 expression
COc1cc2ncnc(Nc3ccc(F)c(Cl)c3)c2cc1OCCCN1CCOCC1 [gefitinib],CES1 expression level (western blot),[1],remarkably reduced
epidermal growth factor [EGF],CES1 level (western blot),[2],remarkably higher
same,lipid droplet size,iRPE cells [3]; 100 mM EGF,not obvious
same,amount of lipid droplets,iRPE cells [3]; EGF,significant decrease; also recorded: ameliorates intracellular lipid droplet accumulation
same,cholesterol efflux (in words),"iRPE cells [4]; EGF for two weeks, vs untreated",improve cholesterol efflux
same,increase in cholesterol efflux,"iRPE cells [4]; EGF, 2 weeks, vs untreated control",26%
